Measurements reported in ChEMBL document CHEMBL1150773, “Novel donepezil-based inhibitors of acetyl- and butyrylcholinesterase and acetylcholinesterase-induced beta-amyloid aggregation” (J Med Chem, 2008).

Assays:
Acetylcholinesterase [1] = molecular target: Acetylcholinesterase (Homo sapiens, UniProt P22303)
Description: Inhibition of human erythrocyte AChE by Ellman's assay

Cholinesterase = Cholinesterase (Homo sapiens, UniProt P06276)
Description: Inhibition of human serum BChE by Ellman's assay

Acetylcholinesterase [2] = molecular target: T1, Acetylcholinesterase (Bos taurus, UniProt P23795)
T1 sequence (P23795 whole entry): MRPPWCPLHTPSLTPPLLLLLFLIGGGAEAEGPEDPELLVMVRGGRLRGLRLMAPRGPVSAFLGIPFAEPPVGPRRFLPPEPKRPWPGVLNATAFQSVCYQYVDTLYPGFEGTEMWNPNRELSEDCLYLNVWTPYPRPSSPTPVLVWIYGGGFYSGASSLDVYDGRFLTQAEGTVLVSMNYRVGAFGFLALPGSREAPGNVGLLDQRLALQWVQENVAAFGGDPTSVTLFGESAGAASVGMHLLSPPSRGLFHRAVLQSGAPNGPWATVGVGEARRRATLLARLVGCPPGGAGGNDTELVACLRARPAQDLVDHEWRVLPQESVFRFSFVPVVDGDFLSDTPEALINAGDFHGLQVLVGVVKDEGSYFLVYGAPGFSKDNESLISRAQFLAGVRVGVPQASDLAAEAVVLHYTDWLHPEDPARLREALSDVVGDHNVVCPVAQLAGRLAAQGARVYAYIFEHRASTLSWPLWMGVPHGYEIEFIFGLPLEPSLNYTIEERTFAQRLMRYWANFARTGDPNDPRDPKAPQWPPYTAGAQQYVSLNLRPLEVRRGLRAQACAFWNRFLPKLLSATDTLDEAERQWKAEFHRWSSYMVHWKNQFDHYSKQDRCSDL
Description: Inhibition of bovine erythrocyte AChE by Ellman's assay

Cholinesterase, sequence (P06276 whole entry): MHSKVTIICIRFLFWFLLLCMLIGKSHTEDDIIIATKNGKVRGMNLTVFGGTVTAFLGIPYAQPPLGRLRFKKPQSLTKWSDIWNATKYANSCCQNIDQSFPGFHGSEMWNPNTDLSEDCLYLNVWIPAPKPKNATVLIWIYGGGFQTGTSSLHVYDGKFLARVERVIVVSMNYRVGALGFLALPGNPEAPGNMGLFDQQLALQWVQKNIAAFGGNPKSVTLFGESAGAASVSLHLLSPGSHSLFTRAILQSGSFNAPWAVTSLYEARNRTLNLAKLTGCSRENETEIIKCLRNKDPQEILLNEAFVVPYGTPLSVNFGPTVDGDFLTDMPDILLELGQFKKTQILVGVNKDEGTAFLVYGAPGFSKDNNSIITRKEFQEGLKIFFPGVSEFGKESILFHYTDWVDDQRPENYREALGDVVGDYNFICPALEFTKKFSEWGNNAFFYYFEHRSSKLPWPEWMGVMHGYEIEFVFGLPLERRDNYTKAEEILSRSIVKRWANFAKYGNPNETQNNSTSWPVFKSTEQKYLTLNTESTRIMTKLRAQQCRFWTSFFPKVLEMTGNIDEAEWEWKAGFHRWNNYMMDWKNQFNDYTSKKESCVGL
Acetylcholinesterase (Homo sapiens, UniProt P22303), sequence (P22303 whole entry): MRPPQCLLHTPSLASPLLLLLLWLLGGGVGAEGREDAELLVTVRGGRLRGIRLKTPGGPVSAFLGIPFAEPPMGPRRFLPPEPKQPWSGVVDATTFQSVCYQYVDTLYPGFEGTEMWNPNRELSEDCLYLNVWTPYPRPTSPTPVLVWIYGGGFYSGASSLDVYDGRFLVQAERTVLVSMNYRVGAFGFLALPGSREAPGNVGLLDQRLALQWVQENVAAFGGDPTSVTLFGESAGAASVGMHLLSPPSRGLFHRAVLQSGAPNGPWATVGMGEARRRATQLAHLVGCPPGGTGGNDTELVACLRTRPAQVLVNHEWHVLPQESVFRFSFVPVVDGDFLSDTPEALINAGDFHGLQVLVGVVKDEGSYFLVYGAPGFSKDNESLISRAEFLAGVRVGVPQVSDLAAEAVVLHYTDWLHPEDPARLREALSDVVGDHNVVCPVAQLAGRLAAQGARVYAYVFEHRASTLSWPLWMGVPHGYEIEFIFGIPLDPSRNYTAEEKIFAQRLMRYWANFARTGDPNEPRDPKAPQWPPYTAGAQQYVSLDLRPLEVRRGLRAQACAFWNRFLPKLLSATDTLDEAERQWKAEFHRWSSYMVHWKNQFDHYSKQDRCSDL

COc1cc2c(cc1OC)CC(CC1CCN(CCCNc3c4c(nc5cc(Cl)ccc35)CCCC4)CC1)C2
IC50 (Acetylcholinesterase [1]): 1.06 nM | IC50 (Cholinesterase): 72.7 nM | IC50 (Acetylcholinesterase [2]): 0.82 nM

COc1cc2c(cc1OC)CC(CC1CCN(Cc3ccccc3)CC1)C2
IC50 (Cholinesterase): 6400 nM | IC50 (Acetylcholinesterase [2]): 1450 nM

COc1cc2c(cc1OC)CC(CC1CCN(CCNc3c4c(nc5ccccc35)CCCC4)CC1)C2
IC50 (Acetylcholinesterase [1]): 5.13 nM | IC50 (Cholinesterase): 8.06 nM | IC50 (Acetylcholinesterase [2]): 2.28 nM

COc1cc2c(cc1OC)CC(CC1CCN(CCNc3c4c(nc5cc(Cl)ccc35)CCCC4)CC1)C2
IC50 (Acetylcholinesterase [1]): 2.6 nM | IC50 (Cholinesterase): 88.7 nM | IC50 (Acetylcholinesterase [2]): 1.86 nM

COc1cc2c(cc1OC)CC(CC1CCN(CCCNc3c4c(nc5ccccc35)CCCC4)CC1)C2
IC50 (Acetylcholinesterase [1]): 2.16 nM | IC50 (Cholinesterase): 7.25 nM | IC50 (Acetylcholinesterase [2]): 0.82 nM

COc1cc2c(cc1OC)C(=O)C(CC1CCN(CCCNc3c4c(nc5cc(Cl)ccc35)CCCC4)CC1)C2 (configuration not stated)
IC50 (Cholinesterase): 66.3 nM

Nc1c2c(nc3cc(Cl)ccc13)CCCC2
IC50 (Acetylcholinesterase [2]): 5.73 nM

COc1cc2c(cc1OC)C(=O)C(CC1CCN(CCNc3c4c(nc5cc(Cl)ccc35)CCCC4)CC1)C2 (configuration not stated)
IC50 (Acetylcholinesterase [1]): 0.67 nM | IC50 (Cholinesterase): 136 nM | IC50 (Acetylcholinesterase [2]): 0.57 nM

COc1cc2c(cc1OC)C(=O)C(CC1CCN(CCCNc3c4c(nc5ccccc35)CCCC4)CC1)C2 (configuration not stated)
IC50 (Acetylcholinesterase [1]): 0.88 nM | IC50 (Cholinesterase): 12.3 nM | IC50 (Acetylcholinesterase [2]): 0.29 nM
